# Assay results taken from patent US9783522B2, “2-amino-pyridine and 2-amino-pyrimidine derivatives and medicinal use thereof” (MITSUBISHI TANABE PHARMA CORPORATION, priority 2014, dated 2017).
# Target: T1, ATX activity in plasma (Rattus norvegicus, UniProt Q64610)
# T1 construct: from tissue; host or cells: plasma of male Wistar rats after oral dosing (ex vivo)
# Experiment: Measurement of ATX activity in plasma (ex vivo) after oral administration to rats
# Conditions: male Wistar rat, 8 hr after administration, plasma ATX activity vs solvent control
# Procedure: A compound administration solution prepared by wet pulverization in a mixer mill (type: MM400) for 10 min and adjusting to a given concentration with 0.5% aqueous carboxymethylcellulose solution was orally administered to male Wistar rat (5-week-old when used) at 5 mL/kg. Blood samples were collected from the cervical vein over time at 8 to 24 hr after administration. The blood was heparin-treated using a micro blood collection tube Capiject (CJ-AL, TERUMO CORPORATION), and the plasma was separated by centrifugation (4° C., 12,000 rpm, 2 min), and preserved at −80° C. The rats after blood sampling were euthanized by exsanguination from the caudal vena cava under isoflurane inhalation anesthesia. The measurement of ATX activity in plasma was evaluated using the concentration of choline in the plasma, which was liberated from lysophosphatidylcholine (substrate of ATX) by the lysophospholipase D activity of ATX, as an index. An equal amount of 2× assay buffer (200 mM Tris-HCl pH9.0, 10 mM MgCl2, 1 M NaCl, 0.1% Triton X-100) is added to plasma (12 μL) and reacted at 37° C. for 6 hr. The reaction mixture (10 μL) after reaction for 6 hr and 45 μL of reagent R1 solution (100 mM Tris-HCl pH 8.0, 0.5 mM TOOS, 10 U/mL peroxidase, 0.01% Triton X-100) were added and blended and absorbance at 550-700 nm was measured and used as a prevalue. As the standard, choline chloride was used. 1 mM choline chloride was diluted with 2× assay buffer up to 7 steps in 2-fold serial dilution, R1 solution was treated similarly and the absorbance was measured. Furthermore, 15 μL of reagent R2 solution (100 mM Tris-HCl pH 8.0, 1 mM 4-aminoantipyrine, 10 U/mL choline oxidase, 0.01% Triton X-100) was added, and the mixture was reacted at room temperature for 10 min, and absorbance at 550-700 nm was measured. The choline concentration per reaction time was calculated from the difference between the absorbance after R2 solution addition and prevalue measured before R2 addition and used as ATX activity value. inhibitory activity (%)=100×{1-[choline concentration (μM) of test substance administration group/choline concentration (μM) of solvent control group]} <calculating formula>
row,Experimental Example 2 rat single administration test (inhibitory activity (%) at 8 hr after 1 mg/kg oral administration),SMILES
1,88%,"COc1ccc(-c2cnc(NCc3cccc(OC(F)(F)F)c3)nc2)nc1[C@H]1C[C@@H]1C(=O)O [17 (compound 4a), (1S,2S)-2-{3-methoxy-6-[2-(3-trifluoromethoxy-benzylamino)-pyrimidin-5-yl]-pyridin-2-yl}-cyclopropanecarboxylic acid]"
2,84%,"COc1c(C#N)cc(-c2ccc(NCc3cccc(OC(F)(F)F)c3)nc2)cc1CCC(=O)O [Example 10, 3-{3-cyano-2-methoxy-5-[6-(3-trifluoromethoxy-benzylamino)-pyridin-3-yl]-phenyl}-propionic acid]"
3,88%,COc1c(C#N)cc(-c2cnc(NCc3cccc(OC(F)(F)F)c3)nc2)cc1CCC(=O)O [Example 85]
4,82%,COc1ccc(-c2cnc(NCc3cccc(OC(F)(F)F)c3)nc2)cc1C(=O)O [Example 156]

# Target: human recombinant ATX (Homo sapiens, UniProt Q13822)
# Experiment: Enzyme inhibitory test (choline release from LPC, fluorescence)
# Format: biochemical
# Conditions: LPC substrate, room temperature 1 hr, read-out: Experimental Example 1 human ATX IC50
# Procedure: A mixture (10 μL) of substrate and a set of choline quantification reagents (200 μM LPC (1-Oleoyl-sn-glycero-3-phosphocholine Sigma #L1881), 25 μM Amplex UltraRed reagent (Invitrogen), 0.1 U/mL Peroxidase (TOYOBO), 1 U/mL Choline oxidase (TOYOBO)), prepared with assay buffer (50 mM Tris (pH 8.0), 140 mM NaCl, 5 mM KCl, 1 mM CaCl2, 1 mM MgCl2, 0.1% BSA (Albumin from bovine serum, SIGMA), 0.0025% Triton X-100), enzyme (0.4 ng/μL human recombinant ATX) (10 μL), compound-containing solution (100 nL) were dispensed to a 384-well plate, incubated at room temperature for 1 hr and the fluorescence (Ex.525 nm/Em.598 nm) was measured. As the standard, choline chloride was used. With a blank free of enzyme was taken as inhibitory rate 100%, and a control free of inhibitor as inhibitory rate 0%, the inhibitory rate was calculated, and IC50 value was calculated from the inhibitory activity percentage at each concentration.
row,IC50,SMILES
1,0.002 µM,"COc1ccc(-c2ccc(NCc3cccc(OC(F)(F)F)c3)nc2)nc1[C@H]1C[C@@H]1C(=O)O [16 (compound 1a), (1S,2S)-2-[5-methoxy-6′-(3-trifluoromethoxy-benzylamino)-[2,3′]bipyridinyl-6-yl]-cyclopropanecarboxylic acid]"
2,0.002 µM,"COc1ccc(-c2cnc(NCc3cccc(OC(F)(F)F)c3)nc2)nc1[C@H]1C[C@@H]1C(=O)O [17 (compound 4a), (1S,2S)-2-{3-methoxy-6-[2-(3-trifluoromethoxy-benzylamino)-pyrimidin-5-yl]-pyridin-2-yl}-cyclopropanecarboxylic acid]"
3,0.046 µM,"O=C(O)c1cccc2nc(-c3ccc(NCc4cccc(OC(F)(F)F)c4)nc3)[nH]c12 [Example 2, 2-[6-(3-trifluoromethoxy-benzylamino)-pyridin-3-yl]-3H-benzimidazole-4-carboxylic acid]"
4,0.035 µM,"O=C(O)c1ccc2nc(-c3ccc(NCc4cccc(OC(F)(F)F)c4)nc3)oc2c1 [Example 3, 2-[6-(3-trifluoromethoxy-benzylamino)-pyridin-3-yl]-benzoxazole-6-carboxylic acid]"
5,0.003 µM,"Cn1nc(C(=O)O)c2cc(-c3ccc(NCc4cccc(OC(F)(F)F)c4)nc3)ccc21 [Example 7, 1-methyl-5-[6-(3-trifluoromethoxy-benzylamino)-pyridin-3-yl]-1H-indazole-3-carboxylic acid]"
6,0.017 µM,"COc1c(C#N)cc(-c2ccc(NCc3cccc(OC(F)(F)F)c3)nc2)cc1CCC(=O)O [Example 10, 3-{3-cyano-2-methoxy-5-[6-(3-trifluoromethoxy-benzylamino)-pyridin-3-yl]-phenyl}-propionic acid]"
7,0.013 µM,"O=C(O)CCc1cc(-c2cnc(NCc3cccc(OC(F)(F)F)c3)nc2)ccc1Cl [Example 11, 3-{2-chloro-5-[2-(3-trifluoromethoxy-benzylamino)-pyrimidin-5-yl]-phenyl}-propionic acid]"
8,0.037 µM,"COc1ccc(-c2cnc(NCc3cccc(OC(F)(F)F)c3)nc2)cc1CCC(=O)O [Example 21, 3-{2-methoxy-5-[2-(3-trifluoromethoxy-benzylamino)-pyrimidin-5-yl]-phenyl}-propionic acid]"
9,0.033 µM,"COc1ccc(-c2ccc(NCc3cccc(OC(F)(F)F)c3)nc2)cc1CCC(=O)O [Example 22, 3-{2-methoxy-5-[6-(3-trifluoromethoxy-benzylamino)-pyridin-3-yl]-phenyl}-propionic acid]"
10,0.015 µM,"COc1c(C#N)cc(-c2ccc(NCc3cccc(OC(F)(F)F)c3)nc2)cc1C(C)(C)C(=O)O [Example 26, 2-{3-cyano-2-methoxy-5-[6-(3-trifluoromethoxy-benzylamino)-pyridin-3-yl]-phenyl}-2-methyl-propionic acid]"
11,0.022 µM,"O=C(O)c1cc(-c2cnc(NCc3cccc(OC(F)(F)F)c3)nc2)cc(OC2CNC2)c1Cl [Example 30, 3-(azetidin-3-yloxy)-2-chloro-5-[2-(3-trifluoromethoxy-benzylamino)-pyrimidin-5-yl]-benzoic acid]"
12,0.01 µM,"COc1c(C(=O)O)cc(-c2cnc(NCc3cccc(OC(F)(F)F)c3)nc2)cc1-c1ccncc1 [Example 33, 2-methoxy-3-pyridin-4-yl-5-[2-(3-trifluoromethoxy-benzylamino)-pyrimidin-5-yl]-benzoic acid]"
13,0.083 µM,"COc1ccc(-c2ccc(NCc3cccc(OC(F)(F)F)c3)nc2)cc1C(=O)O [Example 34, 2-methoxy-5-[6-(3-trifluoromethoxy-benzylamino)-pyridin-3-yl]-benzoic acid]"
14,0.075 µM,O=C(O)CN1CCN(c2ccc(-c3ccc(NCc4cccc(OC(F)(F)F)c4)nc3)cc2F)C1=O [Example 44]
15,0.025 µM,COc1c(C#N)cc(-c2ccc(NCc3cccc(OC(F)(F)F)c3)nc2)cc1C(=O)O [Example 63]
16,0.01 µM,COc1ccc(-c2ccc(NCc3cccc(OC(F)(F)F)c3)nc2)c2[nH]nc(C(=O)O)c12 [Example 69]

row,IC50,SMILES
1,0.003 µM,Cn1nc(C(=O)O)c2cc(-c3cnc(NCc4cccc(OC(F)(F)F)c4)nc3)ccc21 [Example 74]
2,0.007 µM,COc1c(C#N)cc(-c2cnc(NCc3cccc(OC(F)(F)F)c3)nc2)cc1CCC(=O)O [Example 85]
3,0.02 µM,COc1cc(-c2ccc(NCc3cccc(OC(F)(F)F)c3)nc2)ccc1C1CC1C(=O)O (stereo not shown) [Example 88]
4,0.023 µM,COc1c(CCC(=O)O)cc(-c2ccc(NCc3cccc(OC(F)(F)F)c3)nc2)cc1C1COC1 [Example 92]
5,0.007 µM,COc1cc(-c2ccc(NCc3cccc(OC(F)(F)F)c3)nc2)cc(OC)c1CCC(=O)O [Example 98]
6,0.024 µM,COc1c(Cn2ccnc2)cc(-c2ccc(NCc3cccc(OC(F)(F)F)c3)nc2)cc1C(C)(C)C(=O)O [Example 108]
7,0.012 µM,COc1ccc(-c2ccc(NCc3cccc(OC(F)(F)F)c3)nc2)cc1CC(=O)O [Example 109]
8,0.092 µM,COc1cc(-c2ccc(NCc3cccc(OC(F)(F)F)c3)nc2)ccc1OC[C@H]1CC[C@H](C(=O)O)CC1 [Example 126]
9,0.043 µM,COc1ccc(-c2ccc(NCc3cccc(OC(F)(F)F)c3)nc2)cc1OCC(=O)O [Example 129]
10,0.015 µM,COCCOc1cc(-c2cnc(NCc3cccc(OC(F)(F)F)c3)nc2)cc(C(=O)O)c1Cl [Example 132]
11,0.01 µM,O=C(O)c1cc(-c2cnc(NCc3cccc(OC(F)(F)F)c3)nc2)cc(OC2CCOCC2)c1Cl [Example 133]
12,0.031 µM,O=C(O)c1cc(-c2cnc(NCc3cccc(OC(F)(F)F)c3)nc2)cc(OC2COC2)c1Cl [Example 136]
13,0.031 µM,COc1c(C(=O)O)cc(-c2cnc(NCc3cccc(OC(F)(F)F)c3)nc2)cc1-c1ccoc1 [Example 140]
14,0.093 µM,COc1ccc(-c2cnc(NCc3cccc(OC(F)(F)F)c3)nc2)cc1C(=O)O [Example 156]
15,0.047 µM,COc1ccc(-c2ccc(NCc3cccc(C(C)C)c3)nc2)cc1C(=O)O [Example 176]

row,SMILES,IC50
1,COCCn1nc(C(=O)O)c2cc(-c3ccc(NCc4cccc(OC(F)(F)F)c4)nc3)ccc21 [Example 73],0.009 µM
2,CS(=O)(=O)CCCn1nc(C(=O)O)c2cc(-c3ccc(NCc4cccc(OC(F)(F)F)c4)nc3)ccc21 [Example 75],0.006 µM
